One block for each compound: values may come before it.
Legend:
[1] = test system: Ileum; experiment: (§1) Apparent permeability across basal to apical side of Sprague-Dawley Rattus norvegicus (rat) everted ileum sac at 1 mg/ml by HPLC method; type: ADME, tissue-based
[2] = test system: Jejunum; experiment: (§2) Apparent permeability across basal to apical side of Sprague-Dawley Rattus norvegicus (rat) everted jejunum sac at 1 mg/ml by HPLC method; type: ADME, tissue-based
[3] = test system: Duodenum; experiment: (§3) Apparent permeability across basal to apical side of Sprague-Dawley Rattus norvegicus (rat) everted duodenum sac at 1 mg/ml by HPLC method; type: ADME
[4] = test system: Ileum; experiment: (§4) Apparent permeability across apical to basal side of Sprague-Dawley Rattus norvegicus (rat) normal ileum sac at 1 mg/ml by HPLC method; type: ADME, tissue-based
[5] = test system: Jejunum; experiment: (§5) Apparent permeability across apical to basal side of Sprague-Dawley Rattus norvegicus (rat) normal jejunum sac at 1 mg/ml by HPLC method; type: ADME, tissue-based
[6] = test system: Duodenum; experiment: (§6) Apparent permeability across apical to basal side of Sprague-Dawley Rattus norvegicus (rat) normal duodenum sac at 1 mg/ml by HPLC method; type: ADME
[7] = test system: Ileum; experiment: (§7) Efflux Rattus norvegicus (rat)io of apparent permeability from basal to apical side over apical to basal side of Sprague-Dawley Rattus norvegicus (rat) ileum sac at 1 mg/ml by HPLC method; type: ADME, tissue-based
[8] = test system: Jejunum; experiment: (§8) Efflux Rattus norvegicus (rat)io of apparent permeability from basal to apical side over apical to basal side of Sprague-Dawley Rattus norvegicus (rat) jejunum sac at 1 mg/ml by HPLC method; type: ADME, tissue-based
[9] = test system: Duodenum; experiment: (§9) Efflux Rattus norvegicus (rat)io of apparent permeability from basal to apical side over apical to basal side of Sprague-Dawley Rattus norvegicus (rat) duodenum sac at 1 mg/ml by HPLC method; type: ADME
[10] = Efflux Rattus norvegicus (rat)io of apparent permeability from basal to apical side over apical to basal side of Sprague-Dawley Rattus norvegicus (rat) duodenum sac at 500 ug/ml by HPLC method; type: ADME
[11] = Apparent permeability across basal to apical side of Sprague-Dawley Rattus norvegicus (rat) everted ileum sac at 500 ug/ml by HPLC method; type: ADME, tissue-based
[12] = Apparent permeability across basal to apical side of Sprague-Dawley Rattus norvegicus (rat) everted jejunum sac at 500 ug/ml by HPLC method; type: ADME, tissue-based
[13] = Apparent permeability across basal to apical side of Sprague-Dawley Rattus norvegicus (rat) everted duodenum sac at 500 ug/ml by HPLC method; type: ADME
[14] = Apparent permeability across apical to basal side of Sprague-Dawley Rattus norvegicus (rat) normal ileum sac at 500 ug/ml by HPLC method; type: ADME, tissue-based
[15] = Apparent permeability across apical to basal side of Sprague-Dawley Rattus norvegicus (rat) normal jejunum sac at 500 ug/ml by HPLC method; type: ADME, tissue-based
[16] = Apparent permeability across apical to basal side of Sprague-Dawley Rattus norvegicus (rat) normal duodenum sac at 500 ug/ml by HPLC method; type: ADME
[17] = Efflux Rattus norvegicus (rat)io of apparent permeability from basal to apical side over apical to basal side of Sprague-Dawley Rattus norvegicus (rat) […] sac at 500 ug/ml by HPLC method; type: ADME, tissue-based, Ileum
[18] = Efflux Rattus norvegicus (rat)io of apparent permeability from basal to apical side over apical to basal side of Sprague-Dawley Rattus norvegicus (rat) jejunum sac at 500 ug/ml by HPLC method; type: ADME, tissue-based
[19] = as §1; type: ADME, tissue-based; conditions: Sprague-Dawley
[20] = as §2; type: ADME, tissue-based; conditions: Sprague-Dawley
[21] = as §3; type: ADME; conditions: Sprague-Dawley
[22] = as §4; type: ADME, tissue-based; conditions: Sprague-Dawley
[23] = as §5; type: ADME, tissue-based; conditions: Sprague-Dawley
[24] = as §6; type: ADME; conditions: Sprague-Dawley
[25] = as §7; type: ADME, tissue-based; conditions: Sprague-Dawley
[26] = as §8; type: ADME, tissue-based; conditions: Sprague-Dawley
[27] = as §9; type: ADME; conditions: Sprague-Dawley
[28] = Oral bioavailability in Homo sapiens (human); type: ADME, organism-based; conditions: in vivo
[29] = Elimination half life in Homo sapiens (human); type: ADME, organism-based; conditions: in vivo, read-out: beta t1/2 (converted)
[30] = Dissociation constant, pKa of the compound; type: physicochemical
[31] = Tmax in Homo sapiens (human); type: ADME, organism-based; conditions: in vivo

Papp [1]: 3.6 ×10⁻⁴ cm/s
Papp [2]: 3.6 ×10⁻⁴ cm/s
Papp [3]: 3.4 ×10⁻⁴ cm/s
Papp [4]: 1.3 ×10⁻⁴ cm/s
Papp [5]: 2.2 ×10⁻⁴ cm/s
Papp [6]: 2.4 ×10⁻⁴ cm/s
Ratio [7]: 3.5
Ratio [8]: 1.5
Ratio [9]: 1.4
Structure (SMILES): CC(C)[C@H]1CC[C@H](C(=O)N[C@H](Cc2ccccc2)C(=O)O)CC1 (racemic; form 2) [NATEGLINIDE]

efflux ratio at 500 ug/ml [10]: 1.4
Papp B→A at 500 ug/ml [11]: 380 ×10⁻⁶ cm/s
Papp B→A at 500 ug/ml [12]: 220 ×10⁻⁶ cm/s
Papp B→A at 500 ug/ml [13]: 210 ×10⁻⁶ cm/s
Papp A→B at 500 ug/ml [14]: 100 ×10⁻⁶ cm/s
Papp A→B at 500 ug/ml [15]: 130 ×10⁻⁶ cm/s
Papp A→B at 500 ug/ml [16]: 140 ×10⁻⁶ cm/s
efflux ratio at 500 ug/ml [17]: 3.8
efflux ratio at 500 ug/ml [18]: 1.7
Structure (SMILES): CC(C)[C@H]1CC[C@H](C(=O)N[C@@H](Cc2ccccc2)C(=O)O)CC1 [(S)-NATEGLINIDE]

Papp B→A at 1 mg/ml [19]: 590 ×10⁻⁶ cm/s
Papp B→A at 1 mg/ml [20]: 340 ×10⁻⁶ cm/s
Papp B→A at 1 mg/ml [21]: 350 ×10⁻⁶ cm/s
Papp A→B at 1 mg/ml [22]: 190 ×10⁻⁶ cm/s
Papp A→B at 1 mg/ml [23]: 230 ×10⁻⁶ cm/s
Papp A→B at 1 mg/ml [24]: 260 ×10⁻⁶ cm/s
efflux ratio at 1 mg/ml [25]: 3.1
efflux ratio at 1 mg/ml [26]: 1.4
efflux ratio at 1 mg/ml [27]: 1.3
Structure (SMILES): CC(C)[C@H]1CC[C@H](C(=O)N[C@H](Cc2ccccc2)C(=O)O)CC1 (racemic; form 1) [NATEGLINIDE]

bioavailability [28]: 70%
efflux ratio at 500 ug/ml [10]: 1.6
Papp B→A at 500 ug/ml [11]: 440 ×10⁻⁶ cm/s
Papp B→A at 500 ug/ml [12]: 240 ×10⁻⁶ cm/s
Papp B→A at 500 ug/ml [13]: 250 ×10⁻⁶ cm/s
Papp A→B at 500 ug/ml [14]: 90 ×10⁻⁶ cm/s
Papp A→B at 500 ug/ml [15]: 120 ×10⁻⁶ cm/s
Papp A→B at 500 ug/ml [16]: 150 ×10⁻⁶ cm/s
efflux ratio at 500 ug/ml [17]: 4.8
efflux ratio at 500 ug/ml [18]: 2
half-life [29]: 84 min
pKa [30]: 3.1
Tmax [31]: 30 min
Structure (SMILES): CC(C)[C@H]1CC[C@H](C(=O)N[C@H](Cc2ccccc2)C(=O)O)CC1 [NATEGLINIDE]
